Results from patent US8415469B2, “Compounds and methods for kinase modulation, and indications therefor” (Plexxikon Inc., priority 2005, dated 2013).

Assays:
Type in all cases: biochemical
Btk = target: T1, Btk (Homo sapiens, UniProt Q06187); assay: Z'-Lyte FRET kinase assay (Invitrogen), Btk; settings: read-out: IC50, activity toward kinase Btk
T1 construct: purchased Invitrogen (assay run by Invitrogen)

Fak = target: T2, Fak (Homo sapiens, UniProt Q05397); assay: AlphaScreen kinase assay, Fak; settings: read-out: IC50, activity toward kinase Fak
T2 construct: P1358.pFastBacHtb FAK S411-Q686-X; His6 with pFastBacHTb leader (TEV site) (N); made in house; host or cells: Sf9 (baculovirus)

FGFR1 = target: T3, FGFR1 (Homo sapiens, UniProt P11362, C488A/C584S); assay: AlphaScreen kinase assay, FGFR1; settings: read-out: IC50, activity toward kinase FGFR
T3 construct: P1351.pET N6 BI-PTP FGFR A458-E765-X C488A, C584S; made in house; host or cells: E. coli (PTP1B co-expressed)

Fms = target: T4, Fms (Homo sapiens, UniProt P07333); assay: AlphaScreen kinase assay, Fms; settings: read-out: IC50, activity toward kinase Fms
T4 construct: purchased Upstate Biotechnology

Kdr = target: T5, Kdr (Homo sapiens, UniProt P35968); assay: Z'-Lyte FRET kinase assay (Invitrogen), Kdr; settings: read-out: IC50, activity toward kinase Kdr
T5 construct: purchased Invitrogen (assay run by Invitrogen)

Kit = target: T6, Kit (Homo sapiens, UniProt P10721); assay: AlphaScreen kinase assay, Kit; settings: read-out: IC50, activity toward kinase Kit
T6 construct: P1332.N6 BI PTP KIT M552-K948-X COD; His6 (N); made in house; host or cells: E. coli (PTP1B co-expressed)

Met = target: T7, Met (Homo sapiens, UniProt P08581); assay: AlphaScreen kinase assay, Met; settings: read-out: IC50, activity toward kinase Met
T7 construct: P1818.pETN6 BI-PTP MET G1056-G1364-X WT; His6 (N); made in house; host or cells: E. coli (PTP1B co-expressed)
Summary of the method: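 Kinase activity was measured as phosphorylation of a biotinylated peptide, detected with streptavidin donor and phospho-antibody acceptor beads. Compounds, from 20 mM DMSO stocks, were tested at eight concentrations in 1:3 serial dilution.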

Stk6 = target: T8, Stk6 (Homo sapiens, UniProt O14965); assay: Z'-Lyte FRET kinase assay (Invitrogen), Stk6; settings: read-out: IC50, activity toward kinase Stk6
T8 construct: purchased Invitrogen (Carlsbad, Calif.), screening service
T8 sequence (O14965 1-403): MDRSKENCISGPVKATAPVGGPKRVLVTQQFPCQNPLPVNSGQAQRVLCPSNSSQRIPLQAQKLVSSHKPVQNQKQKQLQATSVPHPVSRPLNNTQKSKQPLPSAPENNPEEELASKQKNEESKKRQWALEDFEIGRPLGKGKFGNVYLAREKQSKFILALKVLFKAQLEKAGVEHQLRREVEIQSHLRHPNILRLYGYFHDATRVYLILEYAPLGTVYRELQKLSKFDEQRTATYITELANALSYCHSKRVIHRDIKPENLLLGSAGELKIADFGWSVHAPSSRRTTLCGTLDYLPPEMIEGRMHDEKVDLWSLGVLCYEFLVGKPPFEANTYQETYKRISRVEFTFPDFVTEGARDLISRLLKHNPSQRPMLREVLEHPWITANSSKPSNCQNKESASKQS

T2 sequence (Q05397 411-686): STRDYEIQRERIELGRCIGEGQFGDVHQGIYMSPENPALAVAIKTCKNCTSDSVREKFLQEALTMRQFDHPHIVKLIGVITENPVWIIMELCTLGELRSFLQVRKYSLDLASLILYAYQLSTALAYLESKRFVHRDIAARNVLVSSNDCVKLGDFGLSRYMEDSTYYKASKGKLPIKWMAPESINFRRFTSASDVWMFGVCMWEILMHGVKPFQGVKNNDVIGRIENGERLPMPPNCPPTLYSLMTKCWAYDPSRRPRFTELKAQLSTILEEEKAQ
T4 sequence (P07333 20-972): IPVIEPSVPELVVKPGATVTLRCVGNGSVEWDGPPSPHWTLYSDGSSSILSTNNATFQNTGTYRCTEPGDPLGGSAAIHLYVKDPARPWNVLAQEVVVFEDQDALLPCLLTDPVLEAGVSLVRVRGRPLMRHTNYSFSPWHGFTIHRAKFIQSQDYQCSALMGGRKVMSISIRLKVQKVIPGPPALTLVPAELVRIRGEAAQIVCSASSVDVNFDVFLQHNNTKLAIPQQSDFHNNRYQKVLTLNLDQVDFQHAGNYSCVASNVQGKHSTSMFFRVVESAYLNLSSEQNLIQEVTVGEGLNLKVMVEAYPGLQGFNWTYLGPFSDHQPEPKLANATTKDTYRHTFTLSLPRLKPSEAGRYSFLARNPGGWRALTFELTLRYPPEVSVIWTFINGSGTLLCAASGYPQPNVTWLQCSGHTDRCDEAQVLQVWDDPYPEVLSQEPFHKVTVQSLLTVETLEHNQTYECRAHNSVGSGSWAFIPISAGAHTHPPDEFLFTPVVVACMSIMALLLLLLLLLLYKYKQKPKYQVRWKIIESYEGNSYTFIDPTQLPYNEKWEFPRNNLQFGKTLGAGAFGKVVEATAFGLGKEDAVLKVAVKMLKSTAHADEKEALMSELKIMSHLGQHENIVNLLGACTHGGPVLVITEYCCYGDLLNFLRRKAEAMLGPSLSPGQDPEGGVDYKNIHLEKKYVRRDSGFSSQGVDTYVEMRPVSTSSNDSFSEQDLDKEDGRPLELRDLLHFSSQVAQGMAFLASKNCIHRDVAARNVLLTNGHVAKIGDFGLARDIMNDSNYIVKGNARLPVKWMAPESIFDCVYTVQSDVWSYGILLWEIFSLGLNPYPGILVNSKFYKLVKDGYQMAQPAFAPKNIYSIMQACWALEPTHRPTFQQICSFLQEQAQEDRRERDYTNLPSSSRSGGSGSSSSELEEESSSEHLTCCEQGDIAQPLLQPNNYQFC
T7 sequence (P08581 with tags, fused parts or gaps): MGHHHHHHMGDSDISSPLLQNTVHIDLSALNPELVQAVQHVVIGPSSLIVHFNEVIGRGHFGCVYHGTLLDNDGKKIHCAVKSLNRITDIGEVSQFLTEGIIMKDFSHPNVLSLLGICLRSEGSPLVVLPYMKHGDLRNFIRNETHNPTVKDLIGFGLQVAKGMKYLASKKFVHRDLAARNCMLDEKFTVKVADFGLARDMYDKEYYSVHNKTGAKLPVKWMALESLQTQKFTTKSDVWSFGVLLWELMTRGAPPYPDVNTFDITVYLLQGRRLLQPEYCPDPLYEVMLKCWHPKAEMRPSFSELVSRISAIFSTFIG
T6 sequence (P10721 with tags, fused parts or gaps): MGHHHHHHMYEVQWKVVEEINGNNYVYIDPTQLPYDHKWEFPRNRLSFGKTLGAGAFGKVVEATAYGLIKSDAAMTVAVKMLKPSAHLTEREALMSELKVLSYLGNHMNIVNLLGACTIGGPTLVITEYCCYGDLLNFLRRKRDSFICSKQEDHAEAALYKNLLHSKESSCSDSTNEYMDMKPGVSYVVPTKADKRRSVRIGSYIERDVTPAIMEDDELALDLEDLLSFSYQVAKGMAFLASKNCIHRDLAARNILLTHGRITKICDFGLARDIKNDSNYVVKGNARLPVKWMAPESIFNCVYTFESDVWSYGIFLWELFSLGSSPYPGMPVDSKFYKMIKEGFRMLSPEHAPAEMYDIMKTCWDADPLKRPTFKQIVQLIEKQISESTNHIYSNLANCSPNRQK
T5 sequence (P35968 20-1356): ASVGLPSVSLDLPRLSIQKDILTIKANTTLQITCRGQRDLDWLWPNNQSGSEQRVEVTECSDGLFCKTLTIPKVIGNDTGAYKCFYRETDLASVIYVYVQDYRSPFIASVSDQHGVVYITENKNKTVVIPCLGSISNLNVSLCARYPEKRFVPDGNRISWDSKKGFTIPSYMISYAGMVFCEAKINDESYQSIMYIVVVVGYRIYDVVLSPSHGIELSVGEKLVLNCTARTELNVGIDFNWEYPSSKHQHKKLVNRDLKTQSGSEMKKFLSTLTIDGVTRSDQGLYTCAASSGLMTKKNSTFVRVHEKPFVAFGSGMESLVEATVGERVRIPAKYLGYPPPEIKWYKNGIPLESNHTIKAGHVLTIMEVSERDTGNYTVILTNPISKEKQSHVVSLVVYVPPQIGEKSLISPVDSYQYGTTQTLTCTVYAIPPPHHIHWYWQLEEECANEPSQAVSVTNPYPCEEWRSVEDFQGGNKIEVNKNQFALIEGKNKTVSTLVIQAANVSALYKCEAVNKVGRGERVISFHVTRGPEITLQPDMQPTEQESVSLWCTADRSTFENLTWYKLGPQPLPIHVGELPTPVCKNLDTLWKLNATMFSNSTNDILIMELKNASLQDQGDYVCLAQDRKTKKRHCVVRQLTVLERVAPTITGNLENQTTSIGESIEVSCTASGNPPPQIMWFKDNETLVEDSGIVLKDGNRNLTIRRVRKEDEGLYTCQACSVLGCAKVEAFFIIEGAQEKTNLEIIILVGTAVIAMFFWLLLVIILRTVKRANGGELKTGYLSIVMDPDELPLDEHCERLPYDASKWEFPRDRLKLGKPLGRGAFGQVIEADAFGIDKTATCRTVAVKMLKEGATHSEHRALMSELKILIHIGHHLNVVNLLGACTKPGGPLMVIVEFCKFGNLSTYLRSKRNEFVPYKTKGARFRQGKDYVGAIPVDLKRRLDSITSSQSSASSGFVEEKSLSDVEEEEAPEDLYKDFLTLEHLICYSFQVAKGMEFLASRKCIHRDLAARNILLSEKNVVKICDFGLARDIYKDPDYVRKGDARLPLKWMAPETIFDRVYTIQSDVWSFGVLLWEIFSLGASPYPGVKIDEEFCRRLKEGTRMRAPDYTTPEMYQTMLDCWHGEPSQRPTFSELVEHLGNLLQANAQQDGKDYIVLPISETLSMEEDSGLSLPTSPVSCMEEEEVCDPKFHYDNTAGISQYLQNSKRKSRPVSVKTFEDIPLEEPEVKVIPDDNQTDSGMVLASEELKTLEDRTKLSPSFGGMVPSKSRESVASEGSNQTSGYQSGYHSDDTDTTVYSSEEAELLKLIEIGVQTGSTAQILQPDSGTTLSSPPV
T3 sequence (P11362 458-765 C488A/C584S): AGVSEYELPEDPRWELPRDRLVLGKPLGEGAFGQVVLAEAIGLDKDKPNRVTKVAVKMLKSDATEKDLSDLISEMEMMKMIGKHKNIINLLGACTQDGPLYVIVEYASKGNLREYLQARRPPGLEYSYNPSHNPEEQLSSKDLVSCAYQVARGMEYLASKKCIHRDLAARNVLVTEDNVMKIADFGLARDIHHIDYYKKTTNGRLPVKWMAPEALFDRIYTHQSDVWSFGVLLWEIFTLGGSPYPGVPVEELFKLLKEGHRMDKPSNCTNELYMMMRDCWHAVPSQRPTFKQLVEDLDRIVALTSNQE
T1 sequence (Q06187 whole entry): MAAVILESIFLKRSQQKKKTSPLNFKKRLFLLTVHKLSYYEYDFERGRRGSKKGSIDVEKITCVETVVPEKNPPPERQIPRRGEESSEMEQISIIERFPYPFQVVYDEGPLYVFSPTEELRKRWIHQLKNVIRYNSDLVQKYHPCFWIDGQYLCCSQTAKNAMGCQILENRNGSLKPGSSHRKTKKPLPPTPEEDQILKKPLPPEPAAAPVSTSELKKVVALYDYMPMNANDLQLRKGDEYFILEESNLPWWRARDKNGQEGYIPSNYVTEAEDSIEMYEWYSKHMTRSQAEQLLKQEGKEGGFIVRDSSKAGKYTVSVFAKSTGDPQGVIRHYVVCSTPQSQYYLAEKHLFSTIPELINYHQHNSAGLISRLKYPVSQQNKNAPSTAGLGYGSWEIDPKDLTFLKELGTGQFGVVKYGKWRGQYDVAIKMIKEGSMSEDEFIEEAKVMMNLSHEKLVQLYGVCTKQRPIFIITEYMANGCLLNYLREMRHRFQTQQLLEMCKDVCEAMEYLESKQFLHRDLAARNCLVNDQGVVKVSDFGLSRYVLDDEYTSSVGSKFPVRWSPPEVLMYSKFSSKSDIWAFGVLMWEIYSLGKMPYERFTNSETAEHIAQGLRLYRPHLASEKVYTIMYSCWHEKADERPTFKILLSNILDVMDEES

Row | Structure (SMILES) | IC50 (Btk) [µM] | IC50 (Fak) [µM] | IC50 (FGFR1) [µM] | IC50 (Fms) [µM] | IC50 (Kdr) [µM] | IC50 (Kit) [µM] | IC50 (Met) [µM] | IC50 (Stk6) [µM]
1 | Cc1c(O)cccc1C(=O)c1c[nH]c2ncc(-c3cccnc3)cc12 [Compound P-0006, (3-Hydroxy-2-methyl-phenyl)-(5-pyridin-3-yl-1H-pyrrolo[2,3b]pyridin-3-yl)-methanone] | ≤ 10 | ≤ 10 | ≤ 10 | ≤ 10 | ≤ 10 | ≤ 10 | ≤ 10 | –
2 | Cc1c(O)cccc1C(=O)c1c[nH]c2ncc(-c3ccccc3)cc12 [Compound P-0016, (3-Hydroxy-2-methyl-phenyl)-(5-phenyl-1H-pyrrolo[2,3b]pyridin-3-yl)-methanone] | ≤ 10 | ≤ 10 | ≤ 10 | ≤ 10 | ≤ 10 | ≤ 10 | ≤ 10 | –
3 | O=C(c1cccc(O)c1F)c1c[nH]c2ncc(-c3cccnc3)cc12 [Compound P-0027, (2-Fluoro-3-hydroxy-phenyl)-(5-pyridin-3-yl-1H-pyrrolo[2,3-b]pyridin-3-yl)-methanone] | ≤ 10 | ≤ 10 | ≤ 10 | ≤ 10 | ≤ 10 | ≤ 10 | ≤ 10 | –
4 | Oc1cccc(Cc2c[nH]c3ncc(-c4cccs4)cc23)c1F [Compound P-0052, 2-Fluoro-3-(5-thiophen-2-yl-1H-pyrrolo[2,3-b]pyridin-3-ylmethyl)-phenol] | ≤ 10 | – | ≤ 10 | – | ≤ 10 | – | ≤ 10 | ≤ 10
5 | Cc1c(NS(C)(=O)=O)cccc1C(=O)c1c[nH]c2ncc(-c3ccccc3)cc12 [Compound P-0082, N-[2-Methyl-3-(5-phenyl-1H-pyrrolo[2,3-b]pyridine-3-carbonyl)-phenyl]-methanesulfonamide] | ≤ 10 | – | ≤ 10 | ≤ 10 | ≤ 10 | ≤ 10 | ≤ 10 | ≤ 10
6 | OCCOc1ccc(F)c(Cc2c[nH]c3ncc(-c4cccnc4)cc23)c1F [Compound P-1394, 2-[2,4-Difluoro-3-(5-pyridin-3-yl-1H-pyrrolo[2,3-b]pyridin-3-ylmethyl)-phenoxy]-ethanol] | – | ≤ 10 | ≤ 10 | ≤ 10 | ≤ 10 | ≤ 10 | ≤ 10 | ≤ 10

Second part, the molecule after the results:

Row | IC50 (Btk) [µM] | IC50 (Fak) [µM] | IC50 (FGFR1) [µM] | IC50 (Fms) [µM] | IC50 (Kdr) [µM] | IC50 (Kit) [µM] | IC50 (Met) [µM] | IC50 (Stk6) [µM] | Structure (SMILES)
7 | ≤ 10 | – | ≤ 10 | – | ≤ 10 | – | ≤ 10 | ≤ 10 | COc1ccc(C(=O)c2c[nH]c3ncc(-c4cccc(/C=C/C(=O)O)c4)cc23)c(Cl)c1 [Compound P-0015]
8 | ≤ 10 | ≤ 10 | ≤ 10 | ≤ 10 | – | ≤ 10 | ≤ 10 | – | CS(=O)(=O)c1cccc(-c2cnc3[nH]cc(C(=O)c4cccc(O)c4F)c3c2)c1 [Compound P-0026, (2-Fluoro-3-hydroxy-phenyl)-[5-(3-methanesulfonylphenyl)1H-pyrrolo[2,3-b]pyridin-3-yl]-methanone]
9 | ≤ 10 | – | ≤ 10 | – | ≤ 10 | ≤ 10 | ≤ 10 | – | Cc1ccc(F)cc1C(=O)c1c[nH]c2ncc(-c3cccc(NS(C)(=O)=O)c3)cc12 [Compound P-0028]
10 | ≤ 10 | – | ≤ 10 | – | ≤ 10 | ≤ 10 | ≤ 10 | ≤ 10 | Cn1cc(C(F)(F)F)c(-c2ccc(S(=O)(=O)NCc3c[nH]c4ncccc34)s2)n1 [Compound P-0041]
